± gives the standard deviation of the averaged measurements.
Legend:
Assay in all cases: relative cell number vs DMSO control (72 h) (% of DMSO); higher = less growth inhibition (more cells)
Conditions in all cases: sgRNA knockout: sgNT
BT-20 = system: BT-20
Experimental: (§1)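 QMAP-Seq: a pool of 5 breast cancer cell lines (ZR-75-1, SKBR3, HCC-38, MDA-MB-231, BT-20), each carrying 12 doxycycline-inducible Cas9 sgRNA perturbations (11 knockouts plus non-targeting sgNT), was treated with compounds for 72 h at four 10-fold doses (10 nM-10 uM or 1 nM-1 uM range). Barcodes were amplified and sequenced, and cell number was interpolated from 293T spike-in standard curves. The result is expressed as % of the median of DMSO wells. Two biological replicates.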

HCC-38 = system: HCC-38
Experimental: as §1

MDA-MB-231 = system: MDA-MB-231
Experimental: as §1

SKBR3 = system: SKBR3
Experimental: as §1

ZR-75-1 = system: ZR-75-1
Experimental: as §1

Row | SMILES | relative cell number (BT-20; 10 nM) | relative cell number (BT-20; 100 nM) | relative cell number (BT-20; 1000 nM) | relative cell number (BT-20; 10000 nM) | relative cell number (HCC-38; 10 nM) | relative cell number (HCC-38; 100 nM) | relative cell number (HCC-38; 1000 nM) | relative cell number (HCC-38; 10000 nM) | relative cell number (MDA-MB-231; 10 nM) | relative cell number (MDA-MB-231; 100 nM) | relative cell number (MDA-MB-231; 1000 nM) | relative cell number (MDA-MB-231; 10000 nM) | relative cell number (SKBR3; 10 nM) | relative cell number (SKBR3; 100 nM) | relative cell number (SKBR3; 1000 nM) | relative cell number (SKBR3; 10000 nM) | relative cell number (ZR-75-1; 10 nM) | relative cell number (ZR-75-1; 100 nM) | relative cell number (ZR-75-1; 1000 nM) | relative cell number (ZR-75-1; 10000 nM) | relative cell number (BT-20; 1 nM) | relative cell number (HCC-38; 1 nM) | relative cell number (MDA-MB-231; 1 nM) | relative cell number (SKBR3; 1 nM) | relative cell number (ZR-75-1; 1 nM)
1 | COc1cc(OC)c(/C=C/S(=O)(=O)Cc2ccc(OC)c(NCC(=O)O)c2)c(OC)c1 [Rigosertib] | 96.5 ± 1.7 | 70.2 ± 4 | 29.8 ± 11 | 29.5 ± 3.1 | 96.39 ± 0.69 | 44.2 ± 2.3 | 26.9 ± 2.6 | 24.8 ± 2.4 | 97.2 ± 1.3 | 94.6 ± 9.7 | 22.9 ± 3.4 | 21.6 ± 4.6 | 88.9 ± 21 | 5.08 ± 2.9 | 11 ± 1 | 11.1 ± 1.8 | 115 ± 13 | 18.8 ± 0.89 | 16.6 ± 2.9 | 16.3 ± 4.1 |  |  |  |  | 
2 | CCc1c2c(nc3ccc(O)cc13)-c1cc3c(c(=O)n1C2)COC(=O)[C@]3(O)CC [SN38] | 77.6 ± 9.2 | 45.3 ± 2.9 | 31.9 ± 5.3 |  | 35.7 ± 5.1 | 19.6 ± 4.8 | 14.5 ± 6 |  | 38 ± 19 | 21.8 ± 3.3 | 19.5 ± 2 |  | 35 ± 16 | 23.2 ± 7.1 | 25 ± 0.91 |  | 39.7 ± 5.6 | 36.2 ± 4.4 | 25.4 ± 4.1 |  | 90.7 ± 2 | 97.2 ± 7.5 | 111 ± 8.8 | 67.7 ± 30 | 57.1 ± 2.3
3 | CC(C)(C)c1cnc(CSc2cnc(NC(=O)C3CCNCC3)s2)o1 [SNS032] | 116 ± 11 | 79.3 ± 15 | 19.7 ± 0.32 | 34.4 ± 1.1 | 100 ± 19 | 81.3 ± 2.6 | 17.3 ± 1.6 | 27.8 ± 0.81 | 106 ± 3.3 | 75.8 ± 13 | 10 ± 2.3 | 12 ± 1.4 | 72.7 ± 6 | 89.5 ± 12 | 7.96 ± 5 | 14.9 ± 1.1 | 99.8 ± 5 | 85.6 ± 9.4 | 9.44 ± 2.4 | 28.7 ± 4 |  |  |  |  | 
4 | CC(=O)Nc1nc(C)c(S(=O)(=O)Nc2ccc(C(O)(C(F)(F)F)C(F)(F)F)cc2)s1 [SR1001] | 111 ± 12 | 92.4 ± 17 | 97.8 ± 18 | 116 ± 32 | 91.5 ± 2.2 | 105 ± 5.6 | 111.7 ± 0.68 | 109 ± 16 | 117 ± 5.5 | 123 ± 15 | 106 ± 12 | 118 ± 29 | 104 ± 4.2 | 87.5 ± 13 | 120 ± 17 | 121 ± 3.7 | 108 ± 41 | 80.6 ± 15 | 82.9 ± 26 | 113 ± 64 |  |  |  |  | 
5 | CC(C)(C)c1ccc(S(=O)(=O)NCc2ccc(C(=O)Nc3cccnc3)cc2)cc1 [STF31] | 101 ± 4.2 | 96.7 ± 4.5 | 85.6 ± 20 | 72.8 ± 18 | 90.7 ± 9.9 | 82.5 ± 12 | 93.2 ± 7.9 | 76.6 ± 10 | 110 ± 16 | 93.4 ± 15 | 61.7 ± 12 | 27.3 ± 3.5 | 97.4 ± 8.6 | 83.52 ± 0.49 | 74.8 ± 10 | 44.1 ± 5.7 | 112 ± 27 | 92.7 ± 8 | 50.2 ± 2 | 63.1 ± 33 |  |  |  |  | 
6 | CN1CCN(CCOc2cc(OC3CCOCC3)c3c(Nc4c(Cl)ccc5c4OCO5)ncnc3c2)CC1 [Saracatinib] | 90.5 ± 32 | 85.8 ± 15 | 73.7 ± 11 | 48.3 ± 18 | 80.8 ± 18 | 87 ± 10 | 78.8 ± 13 | 70.5 ± 12 | 84.1 ± 37 | 70.3 ± 5.9 | 64.1 ± 5.6 | 33.9 ± 17 | 85.4 ± 45 | 95.9 ± 16 | 62.9 ± 18 | 32.6 ± 8 | 77.5 ± 1.3 | 97.6 ± 53 | 92.6 ± 28 | 48.2 ± 22 |  |  |  |  | 
7 | Cn1cnc2c(F)c(Nc3ccc(Br)cc3Cl)c(C(=O)NOCCO)cc21 [Selumetinib] | 80.6 ± 8.9 | 67 ± 3.8 | 99.2 ± 31 | 80.9 ± 20 | 96.6 ± 6.1 | 85.3 ± 4.4 | 84.4 ± 8.8 | 92.3 ± 3.6 | 88.9 ± 25 | 74.2 ± 37 | 96.3 ± 23 | 57.1 ± 36 | 97.8 ± 51 | 90.1 ± 60 | 103 ± 8.6 | 73.3 ± 5.1 | 71 ± 10 | 67 ± 25 | 67.5 ± 21 | 59.2 ± 5.8 |  |  |  |  | 
8 | CC(C)[C@H](O)C(=O)N[C@@H](C)C(=O)N[C@@H]1C(=O)N(C)CCc2ccccc21 [Semagacestat] | 92.3 ± 13 | 86.5 ± 12 | 113 ± 9.9 | 113 ± 23 | 107 ± 6.6 | 107 ± 4.2 | 118 ± 3.2 | 84.4 ± 1.2 | 126 ± 5.3 | 83.5 ± 15 | 91.7 ± 11 | 96.9 ± 12 | 112 ± 42 | 83.1 ± 31 | 72.2 ± 6.8 | 107 ± 42 | 112 ± 22 | 92 ± 28 | 89.7 ± 24 | 132 ± 19 |  |  |  |  | 
9 | CCCc1nn(C)c2c(=O)[nH]c(-c3cc(S(=O)(=O)N4CCN(C)CC4)ccc3OCC)nc12 [Sildenafil] | 95.7 ± 16 | 110 ± 2.7 | 95.2 ± 0.97 | 107 ± 3.9 | 89.5 ± 15 | 92.7 ± 4.1 | 103 ± 9.7 | 124 ± 18 | 114 ± 8.2 | 85 ± 15 | 97.7 ± 22 | 57.1 ± 8.9 | 82.23 ± 0.8 | 91.7 ± 25 | 62.7 ± 0.37 | 68.1 ± 16 | 105 ± 9.5 | 117 ± 58 | 86.3 ± 26 | 57.6 ± 2.1 |  |  |  |  | 
10 | CCC(C)(C)C(=O)O[C@H]1C[C@@H](C)C=C2C=C[C@H](C)[C@H](CC[C@@H]3C[C@@H](O)CC(=O)O3)[C@H]21 [Simvastatin] | 108 ± 18 | 72.5 ± 13 | 89.7 ± 26 | 91.4 ± 19 | 90.5 ± 2.1 | 96 ± 21 | 103 ± 12 | 87.5 ± 13 | 130 ± 20 | 115 ± 28 | 82.6 ± 8.9 | 34.2 ± 13 | 95.7 ± 4.9 | 60.8 ± 3.1 | 113 ± 23 | 66.7 ± 15 | 95.6 ± 57 | 75.2 ± 6 | 109 ± 39 | 75.6 ± 20 |  |  |  |  | 
11 | N[C@@H](CC(=O)N1CCn2c(nnc2C(F)(F)F)C1)Cc1cc(F)c(F)cc1F [Sitagliptin] | 107 ± 24 | 90.6 ± 5.2 | 74.2 ± 14 | 123 ± 24 | 106 ± 10 | 99.2 ± 12 | 106 ± 5 | 92.2 ± 1.9 | 114 ± 63 | 86.6 ± 14 | 113 ± 32 | 120 ± 77 | 87.3 ± 2.4 | 89.5 ± 3.5 | 82.6 ± 2.9 | 89.8 ± 3.9 | 118 ± 6.4 | 84.6 ± 64 | 124 ± 34 | 96.5 ± 5.2 |  |  |  |  | 

— the supplement of paper PMC7661543
